Test results as given in patent US7396837B2, “Antitumoral analogs of lamellarins” (Pharma Mar, S.A.U., priority 2002, dated 2008).
Like-named read-outs stand apart in the source and are kept apart here.

What was measured:
Type in all cases: cell-based
SK-MEL-28 = test: SRB colorimetric cell growth inhibition assay, SK-MEL-28; conditions: Homo sapiens; for GI50: SK-MEL-28, MEL-28, GI=growth inhibition, read-out: GI50 MEL-28; for CC50: SK-MEL-28, read-out: LC50 MEL-28, MEL-28, LC=cell killing (cytotoxic effect); for IC (TGI): SK-MEL-28, MEL-28, TGI=total growth inhibition (cytostatic effect), read-out: TGI MEL-28
Procedure, shortened: (§1)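 In this cytotoxicity screen, compound stays in contact with the cultured human cancer cells without washout; sulforhodamine B binding gives the measure of cell number, and endpoints separate growth inhibition from cytostasis (TGI) and killing (LC).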

LoVo = test: SRB colorimetric cell growth inhibition assay, LoVo; conditions: Homo sapiens; for CC50: read-out: LC50 LOVO, LOVO, LC=cell killing (cytotoxic effect); for GI50: GI=growth inhibition, read-out: GI50 LOVO; for IC (TGI): TGI=total growth inhibition (cytostatic effect), read-out: TGI LOVO
Procedure, shortened: as §1

IGROV-ET = test: SRB colorimetric cell growth inhibition assay, IGROV-ET (ET-743 resistant); conditions: Homo sapiens; for GI50 / IC (TGI): IGROV-ET; for GI50: GI=growth inhibition, read-out: GI50 IGROV-ET; for IC (TGI): TGI=total growth inhibition (cytostatic effect), read-out: TGI IGROV-ET; for CC50: read-out: LC50 IGROV-ET, IGROV-ET, LC=cell killing (cytotoxic effect)
Procedure, shortened: as §1

SK-BR-3 = test: SRB colorimetric cell growth inhibition assay, SK-BR-3; conditions: Homo sapiens; for GI50: GI=growth inhibition, read-out: GI50 SK-BR-3; for IC (TGI): TGI=total growth inhibition (cytostatic effect), read-out: TGI SK-BR-3; for CC50: SK-BR-3, read-out: LC50 SK-BR-3, SK-BR-3, LC=cell killing (cytotoxic effect)
Procedure, shortened: as §1

DU-145 = test: SRB colorimetric cell growth inhibition assay, DU-145; conditions: Homo sapiens; for GI50: GI=growth inhibition, read-out: GI50 DU-145; for IC (TGI): TGI=total growth inhibition (cytostatic effect), read-out: TGI DU-145; for CC50: DU-145, read-out: LC50 DU-145, DU-145, LC=cell killing (cytotoxic effect)
Procedure, shortened: as §1

IGROV = test: SRB colorimetric cell growth inhibition assay, IGROV
Procedure, shortened: as §1

SKOV-3 = test: SRB colorimetric cell growth inhibition assay, SKOV-3; conditions: Homo sapiens; for CC50: SK-OV-3, read-out: LC50 SKOV-3; for IC (TGI): TGI=total growth inhibition (cytostatic effect)
Text: Inhibition of Cell Growth by Colorimetric Assay.
A colorimetric type of assay, using sulforhodamine B (SRB) reaction has been adapted for a quantitative measurement of cell growth and viability (following the technique described by P. A. Skehan, et al., J. Natl. Cancer Inst. 1990, 82, 1107-1112).
This form of assay employs 96 well cell culture microplates of 9 mm diameter (T. Mosmann et al., J. of Immunological Methods 1983, 65, 55-63; G. T. Faircloth et al., J. of Tissue and Culture Methods 1988, 11, 201-205).
Most of the cell lines are obtained from American Type Culture Collection (ATCC) derived from different human cancer types.
The values for mean +/− SD of data from triplicate wells are calculated. Some parameters for cellular responses can be calculated: GI=growth inhibition, TGI=total growth inhibition (cytostatic effect) and LC=cell killing (cytotoxic effect).

HT-29 = test: SRB colorimetric cell growth inhibition assay, HT-29; conditions: Homo sapiens; for CC50: HT-29, read-out: LC50 HT-29, HT-29, LC=cell killing (cytotoxic effect); for GI50 / IC (TGI): HT-29; for GI50: GI=growth inhibition, read-out: GI50 HT-29; for IC (TGI): TGI=total growth inhibition (cytostatic effect), read-out: TGI HT-29
Procedure, shortened: as §1

A-549 = test: SRB colorimetric cell growth inhibition assay, A-549; conditions: Homo sapiens; for GI50 / IC (TGI): A549, A-549; for GI50: GI=growth inhibition, read-out: GI50 A-549; for IC (TGI): TGI=total growth inhibition (cytostatic effect), read-out: TGI A-549; for CC50: A549, read-out: LC50 A-549, A-549, LC=cell killing (cytotoxic effect)
Procedure, shortened: as §1

K-562 = test: SRB colorimetric cell growth inhibition assay, K-562; conditions: Homo sapiens; for GI50 / IC (TGI): K562, K-562; for GI50: GI=growth inhibition, read-out: GI50 K-562; for IC (TGI): TGI=total growth inhibition (cytostatic effect), read-out: TGI K-562; for CC50: K562, read-out: LC50 K-562, K-562, LC=cell killing (cytotoxic effect)
Procedure, shortened: as §1

PANC-1 = test: SRB colorimetric cell growth inhibition assay, PANC-1; conditions: Homo sapiens; for GI50: GI=growth inhibition, read-out: GI50 PANC-1; for IC (TGI): TGI=total growth inhibition (cytostatic effect), read-out: TGI PANC-1; for CC50: PANC-1, read-out: LC50 PANC-1, PANC-1, LC=cell killing (cytotoxic effect)
Procedure, shortened: as §1

LoVo-Dox = test: SRB colorimetric cell growth inhibition assay, LoVo-Dox (MDR)
Procedure, shortened: as §1

[1] = Homo sapiens, IGROV, read-out: LC50 IGROV, IGROV; LC=cell killing (cytotoxic effect)
[2] = Homo sapiens, LOVO-DOX; GI=growth inhibition; read-out: GI50 LOVO-DOX
[3] = Homo sapiens, read-out: LC50 LOVO-DOX, LOVO-DOX; LC=cell killing (cytotoxic effect)

| SMILES | GI50 (SK-MEL-28) [µM] | CC50 (SK-MEL-28) [µM] | IC (TGI) (SK-MEL-28) [µM] | CC50 (LoVo; LoVo) [µM] | GI50 (IGROV-ET) [µM] | IC (TGI) (IGROV-ET) [µM] | CC50 (IGROV-ET) [µM] | CC50 (SK-BR-3) [µM] | CC50 (DU-145) [µM] | CC50 (IGROV; [1]) [µM] | CC50 (SKOV-3) [µM] | CC50 (HT-29) [µM] | GI50 (HT-29) [µM] | IC (TGI) (HT-29) [µM] | GI50 (A-549) [µM] | IC (TGI) (A-549) [µM] | CC50 (A-549) [µM] | GI50 (K-562) [µM] | IC (TGI) (K-562) [µM] | CC50 (K-562) [µM] | also measured |
| --- | --- | --- | --- | --- | --- | --- | --- | --- | --- | --- | --- | --- | --- | --- | --- | --- | --- | --- | --- | --- | --- |
| COc1cc(-c2c3c4cc(OC)c(OC(=O)[C@H](N)C(C)C)cc4oc(=O)c3n3ccc4c(OC(=O)[C@H](N)C(C)C)c(OC)c(OC)cc4c23)ccc1OC(=O)[C@H](N)C(C)C [Compound 43] | 0.498 | 12.1 | 12.1 | 12.1 | 0.098 | 3.24 | 12.1 | 7.9 | 12.1 | 8.94 | 12.1 | 12.1 | 12.1 | 12.1 | 1.9 | 12.1 | 12.1 | 0.118 | 0.565 | 12.1 | GI50 (LoVo; LoVo): 0.635 µM; IC (TGI) (LoVo; LoVo): 3.72 µM; GI50 (SK-BR-3; SK-BR-3, SK-BR-3): 0.212 µM; IC (TGI) (SK-BR-3; SK-BR-3, SK-BR-3): 1.1 µM; GI50 (DU-145; DU-145, DU-145): 0.0574 µM; IC (TGI) (DU-145; DU-145, DU-145): 0.301 µM; GI50 (IGROV; Homo sapiens, IGROV; GI=growth inhibition; read-out: GI50 IGROV): 0.418 µM; IC (TGI) (IGROV; Homo sapiens, IGROV; TGI=total growth inhibition (cytostatic effect); read-out: TGI IGROV): 2.14 µM; GI50 (SKOV-3; SK-OV-3, SKOV-3, GI=growth inhibition, read-out: GI50 SKOV-3): 0.146 µM; IC (TGI) (SKOV-3; SK-OV-3, SKOV-3, read-out: TGI SKOV-3): 1.14 µM; GI50 (PANC-1; PANC-1, PANC-1): 1.49 µM; IC (TGI) (PANC-1; PANC-1, PANC-1): 6.57 µM; CC50 (PANC-1): 12.1 µM; GI50 (LoVo-Dox; [2]): 0.937 µM; IC (TGI) (LoVo-Dox; Homo sapiens, LOVO-DOX; TGI=total growth inhibition (cytostatic effect); read-out: TGI LOVO-DOX): 3.14 µM; CC50 (LoVo-Dox; [3]): 9.84 µM |
| COc1cc(-c2c3c4cc(OC)c(OC(=O)[C@@H](N)CCCCNC(=O)OCc5ccccc5)cc4oc(=O)c3n3ccc4c(OC(=O)[C@@H](N)CCCCNC(=O)OCc5ccccc5)c(OC)c(OC)cc4c23)ccc1OC(=O)[C@@H](N)CCCCNC(=O)OCc1ccccc1 [Compound 44] | 0.48 | 7.6 | 3.21 | 7.6 | 1.18 | 3.58 | 7.6 | 7.6 | 7.6 | 5.06 | 7.6 | 7.6 | 7.6 | 7.6 | 5.44 | 7.6 | 7.6 | 0.182 | 0.686 | 5.36 | GI50 (LoVo; LOVO): 0.374 µM; IC (TGI) (LoVo; LOVO): 3.18 µM; GI50 (SK-BR-3; SK-BR-3): 0.122 µM; IC (TGI) (SK-BR-3; SK-BR-3): 0.866 µM; GI50 (DU-145; DU-145): 0.0485 µM; IC (TGI) (DU-145; DU-145): 0.273 µM; GI50 (IGROV; Homo sapiens; IGROV; GI=growth inhibition; read-out: GI50 IGROV): 1.06 µM; IC (TGI) (IGROV; Homo sapiens; IGROV; TGI=total growth inhibition (cytostatic effect); read-out: TGI IGROV): 2.32 µM; GI50 (SKOV-3; SK-OV-3, read-out: GI50 SKOV-3): 0.0988 µM; IC (TGI) (SKOV-3; SK-OV-3, read-out: TGI SKOV-3, SKOV-3): 1.15 µM; IC (TGI) (PANC-1; PANC-1, PANC-1): 4.35 µM; CC50 (PANC-1): 7.6 µM; GI50 (PANC-1; PANC-1): 1.17 µM; GI50 (LoVo-Dox; [2]): 0.608 µM; CC50 (LoVo-Dox; [3]): 7.6 µM; IC (TGI) (LoVo-Dox; Homo sapiens; LOVO-DOX; TGI=total growth inhibition (cytostatic effect); read-out: TGI LOVO-DOX): 2.51 µM |
